Experimental data from ChEMBL document CHEMBL1177794, “Broad spectrum alkynyl inhibitors of T315I Bcr-Abl” (Bioorg Med Chem Lett, 2010).

Assays:
[1] = target: SRSF protein kinase 3 (Homo sapiens) (UniProt Q9UPE1); experiment: Inhibition of SRPK3 at 10 uM
[2] = target: Tyrosine-protein kinase ABL2 (Homo sapiens) (UniProt P42684); experiment: Inhibition of ABL2 at 10 uM; details: values are per cent of control
[3] = tested on: Phosphatidylinositol 4,5-bisphosphate 3-kinase catalytic subunit alpha isoform (Homo sapiens), P42336 [M1043I]; experiment: Inhibition of PIK3CA M1043I mutant at 10 uM
[4] = target: 5'-AMP-activated protein kinase catalytic subunit alpha-2 (Homo sapiens) (UniProt P54646); experiment: Inhibition of AMPK-alpha2 at 10 uM; details: values are per cent of control
[5] = target: Tyrosine-protein kinase Fer (Homo sapiens) (UniProt P16591); experiment: Inhibition of FER at 10 uM; details: values are per cent of control
[6] = target: cGMP-dependent protein kinase 2 (Homo sapiens) (UniProt Q13237); experiment: Inhibition of PRKG2 at 10 uM
[7] = target: Ephrin type-B receptor 4 (Homo sapiens) (UniProt P54760); experiment: Inhibition of EPHB4 at 10 uM; details: values are per cent of control
[8] = target: cAMP-dependent protein kinase catalytic subunit beta (Homo sapiens) (UniProt P22694); experiment: Inhibition of PKAC-beta at 10 uM; details: values are per cent of control
[9] = target: Serine/threonine-protein kinase PAK 6 (Homo sapiens) (UniProt Q9NQU5); experiment: Inhibition of PAK6 at 10 uM
[10] = target: Rhodopsin kinase GRK1 (Homo sapiens) (UniProt Q15835); experiment: Inhibition of GRK1 at 10 uM; details: values are per cent of control
[11] = target: Tyrosine-protein kinase Fgr (Homo sapiens) (UniProt P09769); experiment: Inhibition of FGR at 10 uM; details: values are per cent of control
[12] = target: Epidermal growth factor receptor (Homo sapiens) (UniProt P04626+P00533+Q15303+P21860); experiment: Inhibition of EGFR S752-I759del mutant at 10 uM; values are per cent of control
[13] = target: Serine/threonine-protein kinase 17B (Homo sapiens) (UniProt O94768); experiment: Inhibition of DRAK2 at 10 uM; details: values are per cent of control
[14] = target: NT-3 growth factor receptor (Homo sapiens) (UniProt Q16288); experiment: Inhibition of TRKC at 10 uM; details: values are per cent of control
[15] = target: Ephrin type-A receptor 4 (Homo sapiens) (UniProt P54764); experiment: Inhibition of EPHA4 at 10 uM; details: values are per cent of control
[16] = target: Phosphorylase b kinase gamma catalytic chain, skeletal muscle/heart isoform (Homo sapiens) (UniProt Q16816); experiment: Inhibition of PHKG1 at 10 uM
[17] = target: Dual specificity tyrosine-phosphorylation-regulated kinase 1A (Homo sapiens) (UniProt Q13627); experiment: Inhibition of DYRK1A at 10 uM; details: values are per cent of control
[18] = tested on: Tyrosine-protein kinase ABL1 (Homo sapiens), P00519 [Y253F]; experiment: Inhibition of phosphorylated ABL1 Y253F mutant at 10 uM; details: values are per cent of control
[19] = target: Phosphatidylinositol 4-phosphate 3-kinase C2 domain-containing subunit beta (Homo sapiens) (UniProt O00750); experiment: Inhibition of PIK3C2B at 10 uM
[20] = target: Receptor-interacting serine/threonine-protein kinase 1 (Homo sapiens) (UniProt Q13546); experiment: Inhibition of RIPK1 at 10 uM; details: values are per cent of control
[21] = tested on: Mast/stem cell growth factor receptor Kit (Homo sapiens), P10721 [L576P]; experiment: Inhibition of KIT L576P mutant at 10 uM; details: values are per cent of control
[22] = target: Membrane-associated tyrosine- and threonine-specific cdc2-inhibitory kinase (Homo sapiens) (UniProt Q99640); experiment: Inhibition of PKMYT1 at 10 uM
[23] = target: Serine/threonine-protein kinase PAK 1 (Homo sapiens) (UniProt Q13153); experiment: Inhibition of PAK1 at 10 uM
[24] = target: Maternal embryonic leucine zipper kinase (Homo sapiens) (UniProt Q14680); experiment: Inhibition of MELK at 10 uM; details: values are per cent of control
[25] = target: Leucine-rich repeat serine/threonine-protein kinase 2 (Homo sapiens) (UniProt Q5S007); experiment: Inhibition of LRRK2 at 10 uM; details: values are per cent of control
[26] = tested on: Phosphatidylinositol 4,5-bisphosphate 3-kinase catalytic subunit alpha isoform (Homo sapiens), P42336 [H1047L]; experiment: Inhibition of PIK3CA H1047L mutant at 10 uM
[27] = target: cAMP-dependent protein kinase catalytic subunit alpha (Homo sapiens) (UniProt P17612); experiment: Inhibition of PKAC-alpha at 10 uM; details: values are per cent of control
[28] = tested on: Phosphatidylinositol 4,5-bisphosphate 3-kinase catalytic subunit alpha isoform (Homo sapiens), P42336 [E545A]; experiment: Inhibition of PIK3CA E545A mutant at 10 uM
[29] = target: Serine/threonine-protein kinase mTOR (Homo sapiens) (UniProt P42345); experiment: Inhibition of MTOR at 10 uM; values are per cent of control
[30] = target: Tyrosine-protein kinase JAK2 (Homo sapiens) (UniProt O60674); experiment: Inhibition of JAK2 JH1 catalytic domain at 10 uM; values are per cent of control
[31] = tested on: Tyrosine-protein kinase ABL1 (Homo sapiens), P00519 [F317L]; experiment: Inhibition of phosphorylated ABL1 F317L mutant at 10 uM; details: values are per cent of control
[32] = target: Serine/threonine-protein kinase 4 (Homo sapiens) (UniProt Q13043); experiment: Inhibition of MST1 at 10 uM
[33] = target: Serine/threonine-protein kinase ULK1 (Homo sapiens) (UniProt O75385); experiment: Inhibition of ULK1 at 10 uM; details: values are per cent of control
[34] = target: Platelet-derived growth factor receptor alpha (Homo sapiens) (UniProt P16234); experiment: Inhibition of PDGFRA at 10 uM; details: values are per cent of control
[35] = target: Serine/threonine-protein kinase DCLK2 (Homo sapiens) (UniProt Q8N568); experiment: Inhibition of DCAMKL2 at 10 uM; details: values are per cent of control
[36] = target: Mitogen-activated protein kinase kinase kinase 6 (Homo sapiens) (UniProt O95382); experiment: Inhibition of ASK2 at 10 uM; details: values are per cent of control
[37] = target: Glycogen synthase kinase-3 alpha (Homo sapiens) (UniProt P49840); experiment: Inhibition of GSK3A at 10 uM; details: values are per cent of control
[38] = target: Tyrosine-protein kinase BTK (Homo sapiens) (UniProt Q06187); experiment: Inhibition of BTK at 10 uM; values are per cent of control
[39] = target: Casein kinase I isoform delta (Homo sapiens) (UniProt P48730); experiment: Inhibition of CSNK1D at 10 uM; values are per cent of control
[40] = target: Phosphatidylinositol 4,5-bisphosphate 3-kinase catalytic subunit beta isoform (Homo sapiens) (UniProt P42338); experiment: Inhibition of PIK3CB at 10 uM
[41] = target: Protein kinase C delta type (Homo sapiens) (UniProt Q05655); experiment: Inhibition of PRKCD at 10 uM
[42] = target: Non-receptor tyrosine-protein kinase TYK2 (Homo sapiens) (UniProt P29597); experiment: Inhibition of TYK2 JH2 pseudokinase domain at 10 uM; details: values are per cent of control

Chain of Serine/threonine-protein kinase PAK 1 (Homo sapiens) (Q13153 whole entry): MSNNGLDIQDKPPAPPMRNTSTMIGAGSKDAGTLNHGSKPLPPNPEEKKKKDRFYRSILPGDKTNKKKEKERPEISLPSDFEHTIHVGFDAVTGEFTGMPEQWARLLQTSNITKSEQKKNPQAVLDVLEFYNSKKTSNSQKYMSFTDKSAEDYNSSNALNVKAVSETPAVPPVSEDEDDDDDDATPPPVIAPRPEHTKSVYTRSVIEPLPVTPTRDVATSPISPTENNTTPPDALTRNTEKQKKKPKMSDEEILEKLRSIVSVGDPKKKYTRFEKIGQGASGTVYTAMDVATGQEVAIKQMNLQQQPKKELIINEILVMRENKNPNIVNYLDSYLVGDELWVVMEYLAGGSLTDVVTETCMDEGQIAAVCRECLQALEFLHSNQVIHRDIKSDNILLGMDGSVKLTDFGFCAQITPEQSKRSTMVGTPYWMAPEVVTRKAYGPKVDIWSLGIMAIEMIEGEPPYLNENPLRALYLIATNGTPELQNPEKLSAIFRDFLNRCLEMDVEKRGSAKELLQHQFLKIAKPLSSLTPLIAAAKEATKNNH
Chain of Tyrosine-protein kinase Fer (Homo sapiens) (P16591 whole entry, looked up): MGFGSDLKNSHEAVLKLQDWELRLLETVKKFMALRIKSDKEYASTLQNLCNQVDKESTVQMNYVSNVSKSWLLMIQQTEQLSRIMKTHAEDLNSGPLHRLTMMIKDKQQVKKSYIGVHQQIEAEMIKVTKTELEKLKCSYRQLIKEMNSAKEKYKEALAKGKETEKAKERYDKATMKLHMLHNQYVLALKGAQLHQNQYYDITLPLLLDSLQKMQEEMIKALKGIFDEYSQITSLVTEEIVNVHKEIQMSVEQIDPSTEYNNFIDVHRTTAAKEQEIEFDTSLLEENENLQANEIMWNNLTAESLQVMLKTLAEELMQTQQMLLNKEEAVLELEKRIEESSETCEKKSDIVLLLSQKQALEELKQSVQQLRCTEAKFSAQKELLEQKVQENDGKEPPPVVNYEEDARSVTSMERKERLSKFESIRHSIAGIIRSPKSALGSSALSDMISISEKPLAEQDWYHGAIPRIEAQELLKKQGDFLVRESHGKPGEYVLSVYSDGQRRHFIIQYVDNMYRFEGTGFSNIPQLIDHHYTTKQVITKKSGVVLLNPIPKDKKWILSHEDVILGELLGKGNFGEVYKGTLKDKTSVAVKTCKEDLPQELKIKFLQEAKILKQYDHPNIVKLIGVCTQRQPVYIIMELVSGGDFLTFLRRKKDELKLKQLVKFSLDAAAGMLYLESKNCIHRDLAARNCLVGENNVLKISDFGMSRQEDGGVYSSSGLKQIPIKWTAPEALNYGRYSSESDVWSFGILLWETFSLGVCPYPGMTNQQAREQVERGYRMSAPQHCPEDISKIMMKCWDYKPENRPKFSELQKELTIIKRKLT
Chain of Maternal embryonic leucine zipper kinase (Homo sapiens) (Q14680 whole entry, looked up): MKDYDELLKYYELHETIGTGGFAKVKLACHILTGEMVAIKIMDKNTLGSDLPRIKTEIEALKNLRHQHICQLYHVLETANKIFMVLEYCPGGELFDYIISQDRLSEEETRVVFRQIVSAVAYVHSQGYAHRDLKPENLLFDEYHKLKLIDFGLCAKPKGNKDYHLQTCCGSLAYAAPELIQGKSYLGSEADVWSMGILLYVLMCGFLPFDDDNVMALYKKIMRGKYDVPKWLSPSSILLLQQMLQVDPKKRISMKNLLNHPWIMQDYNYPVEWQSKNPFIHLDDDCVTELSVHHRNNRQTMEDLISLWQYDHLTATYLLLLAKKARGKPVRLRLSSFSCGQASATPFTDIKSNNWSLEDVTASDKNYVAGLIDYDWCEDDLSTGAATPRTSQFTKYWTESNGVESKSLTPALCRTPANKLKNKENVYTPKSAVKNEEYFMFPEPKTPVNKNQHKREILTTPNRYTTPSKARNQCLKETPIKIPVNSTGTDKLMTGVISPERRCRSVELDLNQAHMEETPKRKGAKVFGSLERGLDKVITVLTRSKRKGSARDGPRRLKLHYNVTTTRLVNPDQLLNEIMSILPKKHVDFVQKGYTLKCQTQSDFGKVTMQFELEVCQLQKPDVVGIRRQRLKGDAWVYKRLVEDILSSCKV
Chain of Serine/threonine-protein kinase ULK1 (Homo sapiens) (O75385 whole entry): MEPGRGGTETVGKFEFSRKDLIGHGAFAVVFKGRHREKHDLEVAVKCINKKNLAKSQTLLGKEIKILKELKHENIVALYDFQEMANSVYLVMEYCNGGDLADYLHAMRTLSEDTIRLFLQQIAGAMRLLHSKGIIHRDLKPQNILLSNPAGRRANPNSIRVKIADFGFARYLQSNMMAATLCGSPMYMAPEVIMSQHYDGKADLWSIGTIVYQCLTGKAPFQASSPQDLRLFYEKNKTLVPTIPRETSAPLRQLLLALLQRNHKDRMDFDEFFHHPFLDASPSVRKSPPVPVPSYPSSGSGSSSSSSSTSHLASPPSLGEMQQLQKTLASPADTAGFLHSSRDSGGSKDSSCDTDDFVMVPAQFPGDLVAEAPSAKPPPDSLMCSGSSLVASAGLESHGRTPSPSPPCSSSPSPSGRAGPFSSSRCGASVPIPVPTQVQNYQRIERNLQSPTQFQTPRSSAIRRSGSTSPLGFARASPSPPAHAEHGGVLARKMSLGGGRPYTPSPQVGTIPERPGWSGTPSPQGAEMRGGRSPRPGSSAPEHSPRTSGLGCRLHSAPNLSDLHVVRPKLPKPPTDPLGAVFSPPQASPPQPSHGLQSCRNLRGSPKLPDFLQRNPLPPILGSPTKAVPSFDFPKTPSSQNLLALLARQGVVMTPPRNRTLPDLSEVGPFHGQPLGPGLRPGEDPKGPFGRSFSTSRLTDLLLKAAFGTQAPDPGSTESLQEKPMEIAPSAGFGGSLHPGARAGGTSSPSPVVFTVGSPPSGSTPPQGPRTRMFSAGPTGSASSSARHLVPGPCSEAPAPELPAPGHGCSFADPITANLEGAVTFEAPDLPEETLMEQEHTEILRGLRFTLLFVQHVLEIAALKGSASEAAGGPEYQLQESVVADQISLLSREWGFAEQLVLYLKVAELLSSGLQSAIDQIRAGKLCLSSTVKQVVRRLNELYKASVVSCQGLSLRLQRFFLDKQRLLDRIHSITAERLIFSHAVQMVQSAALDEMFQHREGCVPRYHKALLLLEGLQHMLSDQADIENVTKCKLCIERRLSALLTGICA
Chain of 5'-AMP-activated protein kinase catalytic subunit alpha-2 (Homo sapiens) (P54646 whole entry, looked up): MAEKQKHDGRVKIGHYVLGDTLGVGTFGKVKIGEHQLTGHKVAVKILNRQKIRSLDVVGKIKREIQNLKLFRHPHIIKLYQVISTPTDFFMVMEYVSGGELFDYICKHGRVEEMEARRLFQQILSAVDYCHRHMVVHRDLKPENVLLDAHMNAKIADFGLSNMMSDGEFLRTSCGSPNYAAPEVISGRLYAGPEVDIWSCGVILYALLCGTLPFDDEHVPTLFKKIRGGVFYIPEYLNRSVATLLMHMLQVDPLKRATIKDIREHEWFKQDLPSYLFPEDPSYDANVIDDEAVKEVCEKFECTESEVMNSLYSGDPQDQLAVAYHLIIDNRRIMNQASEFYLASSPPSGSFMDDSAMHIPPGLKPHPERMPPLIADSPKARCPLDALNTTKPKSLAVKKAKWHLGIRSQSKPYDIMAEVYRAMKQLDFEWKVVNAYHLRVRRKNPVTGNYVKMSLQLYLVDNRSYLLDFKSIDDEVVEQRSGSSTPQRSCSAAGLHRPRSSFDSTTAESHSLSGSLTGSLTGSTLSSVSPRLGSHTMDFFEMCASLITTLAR
Chain of Tyrosine-protein kinase BTK (Homo sapiens) (Q06187 whole entry, canonical isoform): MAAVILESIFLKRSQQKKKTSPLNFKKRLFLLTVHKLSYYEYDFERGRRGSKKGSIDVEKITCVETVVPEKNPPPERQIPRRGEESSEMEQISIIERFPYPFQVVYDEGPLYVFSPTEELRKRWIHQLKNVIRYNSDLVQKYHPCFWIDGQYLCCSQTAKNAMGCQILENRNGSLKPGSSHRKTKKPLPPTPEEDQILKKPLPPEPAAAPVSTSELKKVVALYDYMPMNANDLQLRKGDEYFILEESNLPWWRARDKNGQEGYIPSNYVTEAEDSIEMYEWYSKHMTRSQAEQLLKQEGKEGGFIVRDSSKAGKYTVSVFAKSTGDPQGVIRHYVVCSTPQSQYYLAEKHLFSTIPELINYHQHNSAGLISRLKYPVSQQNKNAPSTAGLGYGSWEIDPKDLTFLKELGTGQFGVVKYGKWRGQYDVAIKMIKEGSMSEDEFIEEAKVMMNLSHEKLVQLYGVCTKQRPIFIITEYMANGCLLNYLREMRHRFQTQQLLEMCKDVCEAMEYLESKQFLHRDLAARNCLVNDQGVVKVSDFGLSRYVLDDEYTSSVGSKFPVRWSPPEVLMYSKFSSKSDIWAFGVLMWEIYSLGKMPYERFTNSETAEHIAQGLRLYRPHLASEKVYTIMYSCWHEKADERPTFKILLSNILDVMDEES
Chain of Serine/threonine-protein kinase PAK 6 (Homo sapiens) (Q9NQU5 whole entry, looked up): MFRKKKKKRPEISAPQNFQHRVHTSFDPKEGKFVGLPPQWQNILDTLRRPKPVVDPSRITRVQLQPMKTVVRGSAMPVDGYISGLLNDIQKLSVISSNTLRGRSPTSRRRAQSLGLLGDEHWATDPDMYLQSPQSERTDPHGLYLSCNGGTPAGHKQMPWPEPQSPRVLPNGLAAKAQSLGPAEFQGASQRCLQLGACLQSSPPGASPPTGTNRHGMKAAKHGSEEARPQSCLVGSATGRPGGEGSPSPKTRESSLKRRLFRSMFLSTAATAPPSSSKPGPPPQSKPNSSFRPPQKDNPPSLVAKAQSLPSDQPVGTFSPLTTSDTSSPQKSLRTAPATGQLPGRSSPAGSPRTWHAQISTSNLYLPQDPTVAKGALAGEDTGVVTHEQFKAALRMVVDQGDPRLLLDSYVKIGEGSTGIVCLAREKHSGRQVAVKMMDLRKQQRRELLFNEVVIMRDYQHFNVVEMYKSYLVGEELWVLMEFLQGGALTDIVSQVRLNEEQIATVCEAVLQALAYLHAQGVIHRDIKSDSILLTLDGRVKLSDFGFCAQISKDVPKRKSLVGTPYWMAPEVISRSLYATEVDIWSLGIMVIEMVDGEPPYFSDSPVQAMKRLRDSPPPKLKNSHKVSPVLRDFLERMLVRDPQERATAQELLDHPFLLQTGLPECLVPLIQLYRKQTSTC

Question: `CCN1CCN(Cc2ccc(NC(=O)c3ccc(C)c(C#Cc4cccnc4)c3)cc2C(F)(F)F)CC1` was tested. Which inhibition [1] did it give?
Answer: 45%

Question: What about the residual binding, % of control [2] of the same molecule?
Answer: 0.05%

Question: What about the inhibition [3] of the same molecule?
Answer: 83%

Question: And the residual binding, % of control [4]?
Answer: 18%

Question: And the residual binding, % of control [5]?
Answer: 11%

Question: And the inhibition [6]?
Answer: 97%

Question: And the residual binding, % of control [7]?
Answer: 1.6%

Question: What about the residual binding, % of control [8] of the same molecule?
Answer: 4.1%

Question: And the inhibition [9]?
Answer: 100%

Question: What about the residual binding, % of control [10] of the same molecule?
Answer: 100%

Question: And the residual binding, % of control [11]?
Answer: 0%

Question: And the level, % of control [12]?
Answer: 0.9%

Question: What about the residual binding, % of control [13] of the same molecule?
Answer: 100%

Question: And the residual binding, % of control [14]?
Answer: 0.35%

Question: What about the residual binding, % of control [15] of the same molecule?
Answer: 0%

Question: What about the inhibition [16] of the same molecule?
Answer: 88%

Question: What about the residual binding, % of control [17] of the same molecule?
Answer: 60%

Question: What about the residual binding, % of control [18] of the same molecule?
Answer: 0.15%

Question: What about the inhibition [19] of the same molecule?
Answer: 100%

Question: And the residual binding, % of control [20]?
Answer: 0.05%

Question: What about the residual binding, % of control [21] of the same molecule?
Answer: 0%

Question: What about the inhibition [22] of the same molecule?
Answer: 85%

Question: What about the inhibition [23] of the same molecule?
Answer: 81%

Question: And the residual binding, % of control [24]?
Answer: 8.1%

Question: And the residual binding, % of control [25]?
Answer: 3.4%

Question: And the inhibition [26]?
Answer: 100%

Question: And the residual binding, % of control [27]?
Answer: 8.4%

Question: And the inhibition [28]?
Answer: 93%

Question: What about the level, % of control [29] of the same molecule?
Answer: 92%

Question: And the level, % of control [30]?
Answer: 3%

Question: And the residual binding, % of control [31]?
Answer: 0.85%

Question: What about the inhibition [32] of the same molecule?
Answer: 23%

Question: And the residual binding, % of control [33]?
Answer: 24%

Question: And the residual binding, % of control [34]?
Answer: 0%

Question: What about the residual binding, % of control [35] of the same molecule?
Answer: 65%

Question: What about the residual binding, % of control [36] of the same molecule?
Answer: 12%

Question: What about the residual binding, % of control [37] of the same molecule?
Answer: 100%

Question: What about the level, % of control [38] of the same molecule?
Answer: 2%

Question: And the level, % of control [39]?
Answer: 29%

Question: What about the inhibition [40] of the same molecule?
Answer: 100%

Question: What about the inhibition [41] of the same molecule?
Answer: 39%

Question: What about the residual binding, % of control [42] of the same molecule?
Answer: 99%

Question: With `CCN1CCN(Cc2ccc(NC(=O)c3ccc(C)c(C#Cc4cnc5[nH]ccc5c4)c3)cc2C(F)(F)F)CC1` as the molecule, how does the inhibition [1] read?
Answer: 11%

Question: And the residual binding, % of control [2]?
Answer: 0%

Question: What about the inhibition [3] of the same molecule?
Answer: 100%

Question: And the residual binding, % of control [4]?
Answer: 7.2%

Question: And the residual binding, % of control [5]?
Answer: 2.6%

Question: And the inhibition [6]?
Answer: 77%

Question: What about the residual binding, % of control [7] of the same molecule?
Answer: 0.8%

Question: What about the residual binding, % of control [8] of the same molecule?
Answer: 11%

Question: What about the inhibition [9] of the same molecule?
Answer: 85%

Question: What about the residual binding, % of control [10] of the same molecule?
Answer: 88%

Question: And the residual binding, % of control [11]?
Answer: 0.15%

Question: What about the level, % of control [12] of the same molecule?
Answer: 0.75%

Question: And the residual binding, % of control [13]?
Answer: 12%

Question: And the residual binding, % of control [14]?
Answer: 0.35%

Question: And the residual binding, % of control [15]?
Answer: 0.25%

Question: And the inhibition [16]?
Answer: 100%

Question: What about the residual binding, % of control [17] of the same molecule?
Answer: 100%

Question: And the residual binding, % of control [18]?
Answer: 0.2%

Question: And the inhibition [19]?
Answer: 100%

Question: And the residual binding, % of control [20]?
Answer: 0%

Question: And the residual binding, % of control [21]?
Answer: 0%

Question: What about the inhibition [22] of the same molecule?
Answer: 48%

Question: What about the inhibition [23] of the same molecule?
Answer: 62%

Question: What about the residual binding, % of control [24] of the same molecule?
Answer: 6.1%

Question: What about the residual binding, % of control [25] of the same molecule?
Answer: 6.2%

Question: And the inhibition [26]?
Answer: 100%

Question: And the residual binding, % of control [27]?
Answer: 27%

Question: What about the inhibition [28] of the same molecule?
Answer: 93%

Question: And the level, % of control [29]?
Answer: 88%

Question: What about the level, % of control [30] of the same molecule?
Answer: 3%

Question: And the residual binding, % of control [31]?
Answer: 0.85%

Question: What about the inhibition [32] of the same molecule?
Answer: 12%

Question: What about the residual binding, % of control [33] of the same molecule?
Answer: 38%

Question: What about the residual binding, % of control [34] of the same molecule?
Answer: 0%

Question: And the residual binding, % of control [35]?
Answer: 30%

Question: What about the residual binding, % of control [36] of the same molecule?
Answer: 11%

Question: And the residual binding, % of control [37]?
Answer: 100%

Question: And the level, % of control [38]?
Answer: 1.2%

Question: What about the level, % of control [39] of the same molecule?
Answer: 22%

Question: And the inhibition [40]?
Answer: 85%

Question: And the inhibition [41]?
Answer: 24%

Question: And the residual binding, % of control [42]?
Answer: 96%
